# Results: patent US11952364B2, “TRK inhibitors useful as anticancer drugs” (TYLIGAND BIOSCIENCE (SHANGHAI) LIMITED, priority 2018, dated 2024)
# Test: Metabolic stability in liver microsomes (overall statement)
# Assay type: in vitro ADME
# Details: statement in words
# Description: According to standard methods conventional in the art for in vitro metabolic stability studies, for example those protocols described in Kems, Edward H. and Di Li (2008). Drug-like Properties: Concepts. Structure Design and Methods: from ADME to Toxicity Optimization. San Diego: Academic Press; Di, Li et al., Optimization of a Higher Throughput Microsomal Stability Screening Assay for Profiling Drug Discovery Candidates, J. Biomol. Screen. 2003, 8(4), 453., the metabolic stability test in liver microsomes of the present compound was performed analogously as follows.
# The in vitro metabolic stability of the compound in 5 species (mouse, rat, dog, monkey, and human) was evaluated by liver microsomal stability test. 0.1M potassium phosphate buffer solution (pH 7.4, containing 1.0 mM EDTA) was prepared. The test compound and the control compound were prepared into a 10 mM DMSO solution, and then 10 μL of the 10 mM DMSO compound solution was added to 190 μL of acetonitrile to prepare a 500 μM compound solution. […]
# The natural logarithm of the residue percentage at each time point was subjected to linearly regression as a factor of incubation time to obtain Slope k, and then the liver microsome clearance rate (CLint^mic) and in vitro half-life (T½) were calculated according to the following formula: […]
structure (smiles),measurement,value
"COc1ccc(C(=O)Nc2ccc(Oc3cc4cnn(C)c4cc3-c3cn[nH]c3)c(F)c2)c(=O)n1-c1ccc(F)cc1 [Example 12, N-(3-fluoro-4-(1-methyl-6-(1H-pyrazol-4-yl)-1H-indazol-5-yloxy)phenyl)-1-(4-fluorophenyl)-6-methoxy-2-oxo-1,2-dihydropyridine-3-carboxamide]",metabolic stability in liver microsomes compared with Merestinib,significantly improved metabolic stability in liver microsomes
